# Assay results as given in patent US20260166182A1, “CYANINE-BASED FLUOROPHORES” (The General Hospital Corporation, priority 2022, published 2026).
# What was measured:
# [1] = test system: LLC cells; assay: Cytotoxicity study (CCK-8 cell proliferation); assay type: cell-based; conditions: 24 h incubation
# Protocol: Cytotoxicity study: 200 μL of cell suspension was added into a 96-well plate to have 5000 cells in each well. The plate was pre-incubated for 24 hours in a humidified incubator for cells to attach on the bottom of the plate. Stock solutions of SH1, IR-780, and DMSO were premixed with the cell culture media (DMEM containing 10% FBS) to 50 μM, and premixed solutions were filtered using a syringe filter ([…]), and then were diluted to final concentrations of 1-25 μM. After cells reached the desired density (40-50% confluency), the existing media was removed and exchanged with the above solutions at certain concentrations. The plate was further incubated for 24 h. The cell proliferation was determined using a CCK-8 Kit.
# [2] = test system: pancreatic ductal adenocarcinoma (PDAC; Pan02 cell); assay: NIR-II fluorescence imaging of subcutaneous PDAC tumor-bearing C57BL/6 mice; assay type: in vivo, mouse
# Text: (§1) General NIR-II fluorescence imaging: A 640×512-pixel InGaAs camera (Ninox640, Raptor Photonics) and macro zoom lens (0-10×; Navitar Zoom 7000 with SWIR coating) along with 900, 1070, 1100, and 1200 nm long-pass (LP) filters from either Thorlab or Edmund optics were used to collect the NIR-II signal. InGaAs camera played a role as an open-air imaging system along with the support of the FLARE system. An 808 nm fiber-coupled diode laser ([…] at the sample) was used as an excitation source. Data acquisition was done using in-house developed software. The mice fur on the region of interest was shaved prior to imaging using a clipper and removed completely using a depilatory cream. 100 μL of SH1 in 5 w/v % BSA saline ([…]) was injected through the tail vein. Mice were imaged with intact skin using InGaAs camera. At least 3 mice were analyzed for each sample. […]
# (§2) Statistical analysis: The fluorescence and background intensities of a region of interest over each tissue were quantified using customized imaging software and ImageJ v1.48 (National Institutes of Health, Bethesda, MD). The signal-to-background ratio (SBR) was calculated as SBR=fluorescence/background, where background was the fluorescence intensity of muscle. […] The differences among groups were determined using one-way ANOVA analysis to assess the statistical differences among more than two groups. […]
# [3] = test system: triple-negative breast adenocarcinoma (E0771 cell); assay: NIR-II fluorescence imaging of subcutaneous breast tumor-bearing C57BL/6 mice; assay type: in vivo, mouse; conditions: larger-sized breast tumors
# Text: as §1, §2
# [4] = Photostability under xenon lamp irradiation; assay type: physicochemical; conditions: 2 h
# Protocol: Optical Study, Photostability, Physicochemical Properties, and DFT Calculation: 1 mM stock solution in DMSO of the synthesized fluorophores was prepared before starting any spectral measurement. Optical properties for the synthesized fluorophores were measured in four different solvents (EtOH, DMSO, HEPES, and PBS). Absorbance spectra were measured in a Varian Cary 50 absorbance spectrophotometer (190-1100 nm). Fluorescence emission and photostability were measured and emission spectra were recorded on a Shimadzu RF-5301PC spectrofluorometer. Physicochemical properties (Log D, molecular mass, TPSA, H bond D/A, polarizability, molecular volume, and rotatable bonds) were predicted by ChemAxon (JChem plugin). Theoretical calculations of frontier molecular orbitals (FMOs) for the optimized structures of selected fluorophores were calculated based on DFT calculations at the B3LYP/6-311G(d,p) level.
# In consideration of theranostic (therapeutics and diagnostic) applications, NIR cyanine fluorophores are synthesized for fluorescence imaging, photodynamic therapy (PDT), photothermal therapy (PTT), optoacoustic imaging, and cancer immunotherapy. One of the approaches before using these fluorophores in those applications is to study their biodistribution and clearance pattern in vivo. […] The power density of 150 W is much higher than the required power for fluorescence imaging, considering that the time it takes for a fluorophore to clear from the background and accumulate in sufficient quantities in the targeted tissues is unknown. […] By considering this, an aliquot of the stock solution (1 mM in DMSO) was diluted in ethanol, and the fluorescence intensity was measured at the excitation wavelength same as their absorption maxima (nm). Photodegradation rates were measured every 20 min intervals for the selected fluorophores based on the % reduced fluorescence intensity starting from 100%. […] The data were collected in every 20 min intervals under continuous irradiation with a xenon lamp at 150 W for 2 h and presented based on the % reduced fluorescence intensity starting from 100%. […]
compound,measurement,setting,value
"CCCCN1/C(=C/C=C2\CCCC(/C=C/C3=[N+](CCCC)c4ccc(Cl)cc4C3(C)C)=C2Cl)C(C)(C)c2cc(Cl)ccc21 [SH1, 1-butyl-2-((E)-2-((E)-3-(2-((E)-1-butyl-5-chloro-3,3-dimethylindolin-2-ylidene)ethylidene)-2-chlorocyclohex-1-en-1-yl)vinyl)-5-chloro-3,3-dimethyl-3H-indol-1-ium]",concentration that did not affect cell proliferation,[1],up to 10 μM
same,TBR,"[2]; PDAC less than 5 mm in size, compared to healthy tissue",~9.5
same,onset of signals in the cancerous region,"[2]; intravenous, until 24 h post-injection",did not appear at early time points
same,TBR,[3],17.6
same,photodegradation (% reduced fluorescence intensity),[4],I-4
